The target of this assay is T1, human TLR7 (Homo sapiens, UniProt Q9NYK1).
T1 sequence (Q9NYK1 27-1049): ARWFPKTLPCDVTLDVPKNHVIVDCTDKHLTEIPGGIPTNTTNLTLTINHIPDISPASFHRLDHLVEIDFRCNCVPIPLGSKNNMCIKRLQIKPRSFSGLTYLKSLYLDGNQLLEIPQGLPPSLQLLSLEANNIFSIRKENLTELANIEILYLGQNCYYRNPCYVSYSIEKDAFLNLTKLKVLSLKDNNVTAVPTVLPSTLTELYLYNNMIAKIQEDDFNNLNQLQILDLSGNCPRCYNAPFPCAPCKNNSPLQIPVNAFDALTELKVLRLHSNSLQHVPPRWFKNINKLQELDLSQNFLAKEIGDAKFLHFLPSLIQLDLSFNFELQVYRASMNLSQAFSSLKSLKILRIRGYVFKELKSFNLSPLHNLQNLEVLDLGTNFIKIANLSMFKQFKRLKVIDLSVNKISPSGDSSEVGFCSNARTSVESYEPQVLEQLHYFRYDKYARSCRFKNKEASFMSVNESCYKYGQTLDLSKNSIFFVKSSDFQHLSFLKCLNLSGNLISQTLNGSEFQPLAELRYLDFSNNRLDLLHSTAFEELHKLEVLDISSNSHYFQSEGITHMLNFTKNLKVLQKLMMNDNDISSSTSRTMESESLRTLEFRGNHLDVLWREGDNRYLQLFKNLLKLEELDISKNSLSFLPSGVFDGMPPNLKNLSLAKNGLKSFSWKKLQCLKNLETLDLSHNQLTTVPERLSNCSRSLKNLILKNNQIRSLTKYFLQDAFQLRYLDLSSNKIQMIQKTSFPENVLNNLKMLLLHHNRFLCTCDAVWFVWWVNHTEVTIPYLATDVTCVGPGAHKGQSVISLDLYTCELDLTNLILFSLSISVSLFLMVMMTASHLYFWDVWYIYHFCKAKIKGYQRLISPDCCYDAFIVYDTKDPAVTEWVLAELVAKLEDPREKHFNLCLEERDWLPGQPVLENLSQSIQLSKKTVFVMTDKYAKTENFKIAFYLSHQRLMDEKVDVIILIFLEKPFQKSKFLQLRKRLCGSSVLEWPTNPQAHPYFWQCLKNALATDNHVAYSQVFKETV
Description: HEK293-Blue hTLR7 reporter assay (QUANTI-BLUE, SEAP readout). To be noted: HEK-Blue-hTLR7 cells, QUANTI-BLUE assay (A1-A76), 24 hrs. The assay is classed as cell-based. Details: host or cells: HEK293 (HEK-Blue-hTLR7). As to the method: HEK293-Blue hTLR7 Reporter Assay:
HEK-Blue-hTLR7 cell line (Invivogen, Cat. No. hkb-htlr7) was designed so that the expression of the secreted embryonic alkaline phosphatase (SEAP) was induced by activating NF-κ and AP-1 via stimulating human TLR7 with TLR7 agonists.
HEK-Blue-hTLR7 cells were seeded at a density of 4×10^4 cells/well in a volume of 180 μL in a 96-well plate in DMEM (Cat. No. 11965-092) supplemented with 10% (v/v) heat-inactivated fetal bovine serum (FBS) (Gibco, 10099-1441), 100 U/ml penicillin and 100 μg/ml streptomycin (Gibco, 15140122) containing […], […] and 10% (v/v) heat-inactivated fetal bovine serum. The cells were settled for 5 hrs, then treated with increasing amounts of tested compounds at 37° C. for 24 hrs. Then 20 μL of the supernatant from each well was incubated with 180 uL Quanti-blue substrate solution at 37° C. for 10-30 mins before the activity of the SEAP was determined at 620-655 nm using a spectrophotometer. The EC50 value for each compound was calculated with GraphPad Prism software using the sigmoidal dose-response function.
A general note: A reporter such as luciferase makes a cellular process visible.
What is called EC50 is the concentration giving half of the maximal effect. On to `CCCCOc1nc(N)c2ncc(Cc3ccc(CC4CCNCC4)cc3)n2n1` [Compound A33, 2-butoxy-7-(4-(piperidin-4-ylmethyl)benzyl)imidazo[2,1-f][1,2,4]triazin-4-amine], for which the EC50 is 1.06 µM. Next, `CCCCOc1nc(N)c2ncc(Cc3cnc(OCCCN(C)C)c(Cl)c3)n2n1` [Compound A34, 2-butoxy-7-((5-chloro-6-(3-(dimethylamino)propoxy)pyridin-3-yl)methyl)imidazo[2,1-f][1,2,4]triazin-4-amine]: 3.37 µM; `CCCCOc1nc(N)c2ncc(Cc3ccc(OCCCN(C)C)c(F)c3)n2n1` [Compound A35, 2-butoxy-7-(4-(3-(dimethylamino)propoxy)-3-fluorobenzyl)imidazo[2,1-f][1,2,4]triazin-4-amine]: 2.07 µM; `CCCCOc1nc(N)c2ncc(Cc3ccc(OCCCN(C)C)cc3F)n2n1` [Compound A36, 2-butoxy-7-(4-(3-(dimethylamino)propoxy)-2-fluorobenzyl)imidazo[2,1-f][1,2,4]triazin-4-amine]: 0.88 µM. Next, `CCCCOc1nc(N)c2ncc(Cc3ccc(OCCN)nc3)n2n1` [Compound A37, 7-((6-(2-aminoethoxy)pyridin-3-yl)methyl)-2-butoxyimidazo[2,1-f][1,2,4]triazin-4-amine]: > 10 µM; `CCCCOc1nc(N)c2ncc(Cc3ccc(OC4C[C@H]5CC[C@@H](C4)N5)cc3F)n2n1` (stereo partly drawn) [Compound A38, 7-(4-(((1R,5S)-8-azabicyclo[3.2.1]octan-3-yl)oxy)-2-fluorobenzyl)-2-butoxyimidazo[2,1-f][1,2,4]triazin-4-amine]: 1.86 µM. With `CCCCOc1nc(N)c2ncc(Cc3ccc(CN4CCN(C(=O)CN(C)C)CC4)cc3)n2n1` [Compound A39, 1-(4-(4-((4-amino-2-butoxyimidazo[2,1-f][1,2,4]triazin-7-yl)methyl)benzyl)piperazin-1-yl)-2-(dimethylamino)ethan-1-one] the figure was 0.543 µM; with `CCCCOc1nc(N)c2ncc(Cc3cnc(OC4CCNCC4)c(Cl)c3)n2n1` [Compound A40, 2-butoxy-7-((5-chloro-6-(piperidin-4-yloxy)pyridin-3-yl)methyl)imidazo[2,1-f][1,2,4]triazin-4-amine], 0.602 µM; with `CCCCOc1nc(N)c2ncc(Cc3ccc(CN4C[C@@H]5C[C@H]4CN5)cc3)n2n1` [Compound A41, 7-(4-(((1S,4S)-2,5-diazabicyclo[2.2.1]heptan-2-yl)methyl)benzyl)-2-butoxyimidazo[2,1-f][1,2,4]triazin-4-amine], 1.59 µM. As for `CCCCOc1nc(N)c2ncc(Cc3ccc(CCN4CCCC4)cc3)n2n1` [Compound A42, 2-butoxy-7-(4-(2-(pyrrolidin-1-yl)ethyl)benzyl)imidazo[2,1-f][1,2,4]triazin-4-amine], the EC50 stood at 1.38 µM.

The compound `CCCCOc1nc(N)c2ncc(Cc3ccc(CN4CCC(N(C)C)C4)cc3)n2n1` (stereo not shown) [Compound A44, 2-butoxy-7-(4-((3-(dimethylamino)pyrrolidin-1-yl)methyl)benzyl)imidazo[2,1-f][1,2,4]triazin-4-amine] gave an EC50 of 1.01 µM. The EC50 values of the last two compounds are within 1.5-fold of each other. Next, `CCCCOc1nc(N)c2ncc(Cc3cnc(OCC(C)(C)CN(C)C)c(Cl)c3)n2n1` [Compound A45, 2-butoxy-7-((5-chloro-6-(3-(dimethylamino)-2,2-dimethylpropoxy)pyridin-3-yl)methyl)imidazo[2,1-f][1,2,4]triazin-4-amine]: 3.84 µM; `CCCCOc1nc(N)c2ncc(Cc3ccc(CN)cc3)n2n1` [Compound A46, 7-(4-(aminomethyl)benzyl)-2-butoxyimidazo[2,1-f][1,2,4]triazin-4-amine]: > 10 µM; `CCCCOc1nc(N)c2ncc(Cc3ccc(CN4CCC(Oc5ccccc5)CC4)cc3)n2n1` [Compound A47, 2-butoxy-7-(4-((4-phenoxypiperidin-1-yl)methyl)benzyl)imidazo[2,1-f][1,2,4]triazin-4-amine]: > 10 µM. Next, `Cc1cc(COc2nc(N)c3ncc(Cc4ccc(CN5CCCC5)cc4)n3n2)no1` [Compound A48, 2-((5-methylisoxazol-3-yl)methoxy)-7-(4-(pyrrolidin-1-ylmethyl)benzyl)imidazo[2,1-f][1,2,4]triazin-4-amine]: > 10 µM. With `CCCCOc1nc(N)c2ncc(Cc3ccc(OC4C[C@H]5CC[C@@H](C4)N5CC)cc3F)n2n1` (stereo partly drawn) [Compound A49, 2-butoxy-7-(4-(((1R,5S)-8-ethyl-8-azabicyclo[3.2.1]octan-3-yl)oxy)-2-fluorobenzyl)imidazo[2,1-f][1,2,4]triazin-4-amine] the figure was 4.32 µM. As for `CCCCOc1nc(N)c2ncc(Cc3ccc(OC)cn3)n2n1` [Compound A50, 2-butoxy-7-((5-methoxypyridin-2-yl)methyl)imidazo[2,1-f][1,2,4]triazin-4-amine], the EC50 is > 10 µM.

For the compound `CCCCOc1nc(N)c2ncc(Cc3cccc(OC)n3)n2n1` [Compound A51, 2-butoxy-7-((6-methoxypyridin-2-yl)methyl)imidazo[2,1-f][1,2,4]triazin-4-amine], the EC50 was > 10 µM. With `Nc1nc(N)c2ncc(Cc3ccc(CN4CCCC4)cc3)n2n1` [Compound A52, 7-(4-(pyrrolidin-1-ylmethyl)benzyl)imidazo[2,1-f] [1,2,4]triazine-2,4-diamine] the figure was > 10 µM; with `CCCCOc1nc(N)c2ncc(Cc3ccc(OCC(C)(C)CN(C)C)nc3)n2n1` [Compound A53, 2-butoxy-7-((6-(3-(dimethylamino)-2,2-dimethylpropoxy)pyridin-3-yl)methyl)imidazo[2,1-f][1,2,4]triazin-4-amine], 1.43 µM. Next, `CC(C)COc1nc(N)c2ncc(Cc3ccc(CN4CCCC4)cc3)n2n1` [Compound A54, 2-isobutoxy-7-(4-(pyrrolidin-1-ylmethyl)benzyl)imidazo[2,1-f][1,2,4]triazin-4-amine]: > 10 µM; `CCCCOc1nc(N)c2ncc(Cc3ncccc3OC)n2n1` [Compound A55, 2-butoxy-7-((3-methoxypyridin-2-yl)methyl)imidazo[2,1-f][1,2,4]triazin-4-amine]: > 10 µM; `CCCCOc1nc(N)c2ncc(C(O)c3ncccc3OC)n2n1` (stereo not shown) [Compound A56, (4-amino-2-butoxyimidazo[2,1-f][1,2,4]triazin-7-yl)(3-methoxypyridin-2-yl)methanol]: > 10 µM. `CCCCOc1nc(N)c2ncc(Cc3ccc(OCCCN(C)C)c(C(=O)OC)c3)n2n1` [Compound A57, methyl 5-((4-amino-2-butoxyimidazo[2,1-f][1,2,4]triazin-7-yl)methyl)-2-(3-(dimethylamino)propoxy)benzoate] came in with a concentration giving a half-maximal response (EC50) of 0.375 µM.

As for `CCCCOc1nc(N)c2ncc(Cc3ccc(OCCN(C)C(C)=O)nc3)n2n1` [Compound A59, N-(2-((5-((4-amino-2-butoxyimidazo[2,1-f][1,2,4]triazin-7-yl)methyl)pyridin-2-yl)oxy)ethyl)-N-methylacetamide], the half-maximal effective concentration (EC50) is > 10 µM. With `CCCCOc1nc(N)c2ncc(Cc3ccc(OC4CCN(CC)C4)cc3F)n2n1` (stereo not shown) [Compound A60, 2-butoxy-7-(4-((1-ethylpyrrolidin-3-yl)oxy)-2-fluorobenzyl)imidazo[2,1-f][1,2,4]triazin-4-amine] the figure was 0.246 µM; with `CCCCOc1nc(N)c2ncc(Cc3ccc(OC4CCNC4)cc3F)n2n1` (stereo not shown) [Compound A61, 2-butoxy-7-(2-fluoro-4-(pyrrolidin-3-yloxy)benzyl)imidazo[2,1-f][1,2,4]triazin-4-amine], 0.183 µM. Next, `CCCCOc1nc(N)c2ncc(Cc3ccc(Cn4cncn4)cc3)n2n1` [Compound A62, 7-(4-((1H-1,2,4-triazol-1-yl)methyl)benzyl)-2-butoxyimidazo[2,1-f][1,2,4]triazin-4-amine]: > 10 µM.

Source of the values: US12281119B2, “Imidazo[2,1-f][1,2,4]triazin-4-amine derivatives as TLR7 agonist” (BEIGENE, LTD., priority 2019, dated 2025).
